# Columns and labels:
# [1] = tested on: KP-3 (Pancreatic Carcinoma); test: Bliss excess, mean over the matrix (fraction); higher = more synergy
# Summary of the method: (§1)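 Bliss excess equals the observed combination effect minus the expected value EA + EB − EA·EB, where EA and EB are the effects of each agent alone. Combination Emax is the second-highest inhibition within the matrix. Inhibition was scaled from CellTiter-Glo 2.0 luminescence, with 0 set by vehicle wells and 1 by blank wells, after 72 hours of two-drug dosing of cells plated in 1536-well plates.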
# [2] = tested on: CW-2 (Colorectal Carcinoma); test: combination Emax (second highest fraction inhibited in the dose matrix, 72 h); higher = more inhibition; extreme values may be limits of the assay
# Summary of the method: as §1
# [3] = tested on: DMS-114 (Small Cell Lung Carcinoma); test: as above
# Summary of the method: as §1
# [4] = tested on: KP-3 (Pancreatic Carcinoma); test: as above
# Summary of the method: as §1
# [5] = tested on: KU812 (Chronic Myelogenous Leukemia); test: as above
# Summary of the method: as §1
# [6] = tested on: KYSE-270 (Esophageal Squamous Cell Carcinoma); test: as above
# Summary of the method: as §1
# [7] = tested on: M059J (Glioblastoma); test: as above
# Summary of the method: as §1
# [8] = tested on: MN-60 (B-Lymphoblastic Leukemia); test: as above
# Summary of the method: as §1
# [9] = tested on: MOG-G-CCM (Low Grade Glioma); test: as above
# Summary of the method: as §1
# [10] = tested on: NCCIT (Other Solid Carcinomas); test: as above
# Summary of the method: as §1
# [11] = tested on: NCI-H2731 (Mesothelioma); test: as above
# Summary of the method: as §1
# [12] = tested on: NCI-H3122 (Lung Adenocarcinoma); test: as above
# Summary of the method: as §1
# [13] = tested on: NCI-H520 (Squamous Cell Lung Carcinoma); test: as above
# Summary of the method: as §1
# [14] = tested on: NCI-H526 (Small Cell Lung Carcinoma); test: as above
# Summary of the method: as §1
# [15] = tested on: NCI-H929 (Plasma Cell Myeloma); test: as above
# Summary of the method: as §1
# [16] = tested on: OCI-AML3 (Acute Myeloid Leukemia); test: as above
# Summary of the method: as §1
# [17] = tested on: SJSA-1 (Osteosarcoma); test: as above
# Summary of the method: as §1
# [18] = tested on: SK-GT-4 (Esophageal Adenocarcinoma); test: as above
# Summary of the method: as §1
# [19] = tested on: ST486 (Burkitt's Lymphoma); test: as above
# Summary of the method: as §1
# [20] = tested on: T-T (Esophageal Squamous Cell Carcinoma); test: as above
# Summary of the method: as §1
SMILES,Bliss excess [1],combination Emax [2],combination Emax [3],combination Emax [4],combination Emax [5],combination Emax [6],combination Emax [7],combination Emax [8],combination Emax [9],combination Emax [10],combination Emax [11],combination Emax [12],combination Emax [13],combination Emax [14],combination Emax [15],combination Emax [16],combination Emax [17],combination Emax [18],combination Emax [19],combination Emax [20]
"CC1(C)CCC(CN2CCN(c3ccc(C(=O)NS(=O)(=O)c4ccc(NCC5CCOCC5)c([N+](=O)[O-])c4)c(Oc4cnc5[nH]ccc5c4)c3)CC2)=C(c2ccc(Cl)cc2)C1 [Venetoclax] + CS(=O)(=O)CCNCc1ccc(-c2ccc3ncnc(Nc4ccc(OCc5cccc(F)c5)c(Cl)c4)c3c2)o1 [Lapatinib] (first compound max 1 µM, 7x7, partner max 10 µM)",-0.0487,0.379,0.226,0.165,0.831,0.477,0.365,0.111,0.166,0.209,0.285,0.232,0.296,0.727,0.207,0.397,0.219,0.341,0.524,0.794
"O=C(c1cc(Cc2n[nH]c(=O)c3ccccc23)ccc1F)N1CCN(C(=O)C2CC2)CC1 [Olaparib] + CN(CC[C@H](CSC1=CC=CC=C1)NC2=C(C=C(C=C2)S(=O)(=O)NC(=O)C3=CC=C(C=C3)N4CCC(CC4)[C@H](C5=CC=CC=C5C6=CC=C(C=C6)Cl)O)S(=O)(=O)C(F)(F)F)CCO [AZD4320] (first compound max 10 µM, 7x7, partner max 1 µM)",-0.0422,0.113,0.214,0.104,0.862,0.383,0.321,0.25,0.445,0.198,0.0908,0.223,0.125,0.916,0.142,0.548,0.133,0.154,0.754,0.233
"C=CCn1c(=O)c2cnc(Nc3ccc(N4CCN(C)CC4)cc3)nc2n1-c1cccc(C(C)(C)O)n1 [AZD1775] + CCc1c2c(nc3ccc(O)cc13)-c1cc3c(c(=O)n1C2)COC(=O)[C@]3(O)CC [SN-38] (first compound max 1 µM, partner max 0.3 µM)",-0.067,0.625,0.655,0.397,0.87,0.981,0.891,0.818,0.703,0.841,0.496,0.853,0.808,1,0.927,0.922,0.706,0.486,0.997,0.776
"C[C@@H](Oc1cc(-c2cnn(C3CCNCC3)c2)cnc1N)c1c(Cl)ccc(F)c1Cl [Crizotinib] + Cn1cnc2c(F)c(Nc3ccc(Br)cc3Cl)c(C(=O)NOCCO)cc21 [Selumetinib] (first compound max 10 µM, 7x7, partner max 10 µM)",-0.0229,0.37,0.527,0.208,1,0.441,0.257,0.38,0.374,0.4,0.519,0.916,0.616,0.508,1,0.997,0.82,0.461,0.936,0.759
